The values below come from PubChem BioAssay (NCI).

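Results reflect a 48-hour exposure of cells in 96-well plates to compound at five concentrations. At the GI50, growth is halved. TGI denotes the concentration required for complete inhibition of growth.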 A value given as a limit tells only on which side of the number the result lay.

Some test systems named below: A498 renal; CAKI-1 renal; MDA-MB-435; MOLT-4 leukemia; NCI-H23 lung; NCI-H522 lung; OVCAR-3 ovarian; SK-MEL-28 melanoma; SNB-19 CNS; UACC-257 melanoma.
Holding throughout (assay): NCI-60 cell line screen, 48 h

Take `CCN(CC)C1CCC(Nc2c(C(C)=O)cnc3ccc(-c4ccc(O)c(Cl)c4)cc23)CC1` (stereo not given): the GI50 in the assay with A498 renal was 2.19 µM; in the assay on CAKI-1 renal, 0.376 µM; in the assay with MDA-MB-435, 0.651 µM; in the assay with MOLT-4 leukemia, 0.253 µM; with NCI-H23 lung it was 0.474 µM; with NCI-H522 lung, 0.331 µM. Moreover, the GI50 with OVCAR-3 ovarian is 0.38 µM; with SK-MEL-28 melanoma it was 1.83 µM; in the assay with SNB-19 CNS, 1.75 µM; with UACC-257 melanoma it was 2.77 µM. In addition, the TGI with A498 renal came to 6.84 µM; with CAKI-1 renal, 10.8 µM; with MDA-MB-435 it was 10.5 µM; with MOLT-4 leukemia, 1.18 µM; in the assay on NCI-H23 lung, 3.1 µM; with NCI-H522 lung it was 1.71 µM. Also, the TGI with OVCAR-3 ovarian amounted to 3.15 µM; in the assay with SK-MEL-28 melanoma, 16.2 µM; with SNB-19 CNS, 69.6 µM; with UACC-257 melanoma, 18.3 µM.
As for `O=C(Nc1n[nH]c2nnc(-c3cccnc3)cc12)C1CC1`, the GI50 was 0.051 µM in the assay on A498 renal; 3.87 µM in the assay with CAKI-1 renal; > 11.3 µM with MDA-MB-435; 4.88 µM in the assay on MOLT-4 leukemia; > 15.9 µM with NCI-H23 lung; > 5.13 µM in the assay with NCI-H522 lung. The GI50 in the assay on OVCAR-3 ovarian is 0.114 µM; in the assay with SK-MEL-28 melanoma, > 16.9 µM; in the assay on SNB-19 CNS, > 11.9 µM; in the assay on UACC-257 melanoma, > 17.4 µM. Also, the TGI was 0.17 µM with A498 renal; > 25 µM in the assay on CAKI-1 renal; > 25 µM with MDA-MB-435; > 25 µM with MOLT-4 leukemia; > 25 µM in the assay with NCI-H23 lung; > 25 µM in the assay on NCI-H522 lung. For the same molecule, the TGI in the assay on OVCAR-3 ovarian was > 18.4 µM; in the assay with SK-MEL-28 melanoma, > 25 µM; in the assay with SNB-19 CNS, > 25 µM; in the assay on UACC-257 melanoma, > 25 µM.
In the case of `Oc1cc2ccccc2c(-c2c(O)c(O)cc3ccccc23)c1O`, the GI50 was 1.14 µM in the assay on A498 renal; 0.852 µM in the assay on CAKI-1 renal; 1.17 µM in the assay with MDA-MB-435; 0.897 µM in the assay with MOLT-4 leukemia; 0.703 µM with NCI-H23 lung; 2.31 µM with NCI-H522 lung. Besides, the GI50 in the assay with OVCAR-3 ovarian is 0.825 µM; in the assay with SK-MEL-28 melanoma, 3.37 µM; in the assay with SNB-19 CNS, 2.75 µM; in the assay on UACC-257 melanoma it was 3.24 µM. Further, the TGI in the assay with A498 renal is 10.5 µM; with CAKI-1 renal it was 6.55 µM; with MDA-MB-435, 12.4 µM; in the assay on MOLT-4 leukemia, 18.7 µM; in the assay on NCI-H23 lung, 15.4 µM; with NCI-H522 lung, 21 µM. In addition, the TGI was 17.9 µM in the assay on OVCAR-3 ovarian, 20.7 µM in the assay with SK-MEL-28 melanoma, 27.8 µM in the assay with SNB-19 CNS and 24.3 µM in the assay with UACC-257 melanoma.
For the molecule `N#C[Se]CCCNS(=O)(=O)C1CC2C=CC1C2` (stereo not given), the GI50 was 0.652 µM in the assay on A498 renal; 0.416 µM in the assay on CAKI-1 renal; 0.361 µM in the assay with MDA-MB-435; 0.409 µM in the assay on MOLT-4 leukemia; 1.16 µM in the assay on NCI-H23 lung; 1.78 µM with NCI-H522 lung. Further, the GI50 is 1.47 µM in the assay on OVCAR-3 ovarian, 0.486 µM in the assay on SK-MEL-28 melanoma, 1.05 µM with SNB-19 CNS and 0.648 µM in the assay on UACC-257 melanoma. Also, the TGI is 2.09 µM in the assay with A498 renal; 1.59 µM in the assay with CAKI-1 renal; 1.31 µM in the assay with MDA-MB-435; 22.6 µM with MOLT-4 leukemia; 4.63 µM in the assay on NCI-H23 lung; 4.2 µM in the assay with NCI-H522 lung. The TGI in the assay on OVCAR-3 ovarian is 3.1 µM; with SK-MEL-28 melanoma, 2.77 µM; in the assay with SNB-19 CNS, 2.91 µM; in the assay on UACC-257 melanoma, 3.09 µM.
As for `O=C1c2ccccc2-c2c1c1ccccc1c(=O)n2CCCNCCCCNCCCN1C(=O)c2ccccc2C2C(=O)c3ccccc3C21` (stereo not given), the GI50 in the assay on A498 renal was 0.628 µM; with CAKI-1 renal, 0.447 µM; in the assay on MDA-MB-435 it was 0.805 µM; with MOLT-4 leukemia, < 0.005 µM; in the assay on NCI-H23 lung it was 0.319 µM; in the assay with NCI-H522 lung, 9.38 µM. Besides, the GI50 in the assay with OVCAR-3 ovarian was 0.212 µM; in the assay on SK-MEL-28 melanoma it was 1.19 µM; with SNB-19 CNS, 0.57 µM; in the assay on UACC-257 melanoma it was 3.86 µM. Moreover, the TGI in the assay on A498 renal was 2.21 µM; in the assay with CAKI-1 renal it was 1.13 µM; in the assay on MDA-MB-435, 2.83 µM; with MOLT-4 leukemia it was 0.711 µM; with NCI-H23 lung it was 0.999 µM; with NCI-H522 lung it was 50 µM. In addition, the TGI in the assay with OVCAR-3 ovarian was determined as 0.87 µM; in the assay on SK-MEL-28 melanoma it was 6.76 µM; in the assay on SNB-19 CNS, 1.93 µM; with UACC-257 melanoma, 11.7 µM.
`Cc1ccc(Cl)c(Nc2ccccc2C(=O)O)c1Cl`: the GI50 in the assay on A498 renal was 22.2 µM; in the assay on CAKI-1 renal it was 34.6 µM; in the assay on MDA-MB-435, 23.8 µM; in the assay with MOLT-4 leukemia, 29.9 µM; in the assay with NCI-H23 lung, 21.6 µM; in the assay on NCI-H522 lung, 28.3 µM. In addition, the GI50 in the assay on OVCAR-3 ovarian was 20.3 µM; with SK-MEL-28 melanoma, 30.5 µM; with SNB-19 CNS it was 35 µM; in the assay on UACC-257 melanoma, 27.4 µM. In addition, the TGI was 87.4 µM with A498 renal; > 100 µM with CAKI-1 renal; 85.3 µM with MDA-MB-435; 83.9 µM in the assay with MOLT-4 leukemia; 51.4 µM in the assay with NCI-H23 lung; 87.2 µM in the assay with NCI-H522 lung. For the same molecule, the TGI in the assay on OVCAR-3 ovarian is 37.9 µM; in the assay on SK-MEL-28 melanoma, 89 µM; in the assay on SNB-19 CNS, > 100 µM; in the assay with UACC-257 melanoma, > 100 µM.
`CC(=O)OC12COC1CC(O)C1(C)C(=O)C(O)C3=C(C)C(O)CC(O)(C(OC(=O)c4ccccc4)C21)C3(C)C` (stereo not given): the TGI in the assay with A498 renal was > 100 µM; in the assay on CAKI-1 renal it was > 100 µM; in the assay with MDA-MB-435, 1.48 µM; with MOLT-4 leukemia, > 100 µM; in the assay on NCI-H23 lung it was > 100 µM; with NCI-H522 lung, 11.2 µM. For the same molecule, the TGI with OVCAR-3 ovarian is > 39.2 µM; in the assay with SK-MEL-28 melanoma it was > 100 µM; with SNB-19 CNS it was > 100 µM; in the assay on UACC-257 melanoma, > 100 µM.
On to `O=C(O)c1ccc(C(=O)O)c(C(=O)Nc2ccc3c(c2)C(=O)c2ccccc2-3)c1`, for which the TGI in the assay on A498 renal, in the assay with CAKI-1 renal, in the assay with MDA-MB-435, with MOLT-4 leukemia, in the assay on NCI-H23 lung and with NCI-H522 lung was > 100 µM in each case. For the same molecule, the TGI with OVCAR-3 ovarian, in the assay on SK-MEL-28 melanoma, in the assay with SNB-19 CNS and in the assay on UACC-257 melanoma was > 100 µM each time.
In the case of `O=C1c2cc([N+](=O)[O-])ccc2-c2ccc3c4ccc5c6c(ccc(c7ccc1c2c73)c64)C(=O)c1cc([N+](=O)[O-])ccc1-5`, the TGI with A498 renal, in the assay on CAKI-1 renal, in the assay on MDA-MB-435, in the assay on MOLT-4 leukemia, in the assay with NCI-H23 lung and in the assay on NCI-H522 lung was > 100 µM each time. Further, the TGI in the assay on OVCAR-3 ovarian, in the assay on SK-MEL-28 melanoma, with SNB-19 CNS and in the assay with UACC-257 melanoma was > 100 µM each time.
For `CCCCCCCCn1ccc2cc(NC(=O)Cn3cc(CN4CCCCC4)nn3)ccc21`, the GI50 in the assay with A498 renal was 5.05 µM; in the assay with CAKI-1 renal it was 1.52 µM; with MDA-MB-435, 1.68 µM; with MOLT-4 leukemia it was 2.59 µM; in the assay with NCI-H23 lung, 2.35 µM; in the assay with NCI-H522 lung, 1.8 µM. For the same molecule, the GI50 was 3.42 µM in the assay with OVCAR-3 ovarian, 1.75 µM in the assay on SK-MEL-28 melanoma, 1.82 µM in the assay with SNB-19 CNS and 2.01 µM in the assay with UACC-257 melanoma. Further, the TGI in the assay on A498 renal is 19.5 µM; in the assay with CAKI-1 renal, 2.99 µM; with MDA-MB-435, 3.15 µM; with MOLT-4 leukemia, 7.23 µM; with NCI-H23 lung it was 6.34 µM; in the assay on NCI-H522 lung it was 4 µM. The TGI with OVCAR-3 ovarian amounted to 13.3 µM; in the assay on SK-MEL-28 melanoma, 3.29 µM; in the assay with SNB-19 CNS, 3.65 µM; in the assay with UACC-257 melanoma it was 4.45 µM.
As for `COc1cc2c(cc1OC)C1Cc3cc(OC)c(OC)cc3C(C2)N1C`, the TGI was > 100 µM in the assay with A498 renal; > 100 µM in the assay on CAKI-1 renal; > 75 µM in the assay with MDA-MB-435; > 100 µM in the assay on MOLT-4 leukemia; > 100 µM in the assay on NCI-H23 lung; > 100 µM in the assay on NCI-H522 lung. For the same molecule, the TGI in the assay on OVCAR-3 ovarian, with SK-MEL-28 melanoma, in the assay with SNB-19 CNS and in the assay with UACC-257 melanoma was > 100 µM each time.
Consider `O=C1OCC2=C1C(c1ccc(Cl)c(Cl)c1)c1cc3c(cc1N2CCO)CCC3` (stereo not given), for which the GI50 was 0.0919 µM with A498 renal; 0.145 µM with CAKI-1 renal; 0.0611 µM in the assay with MDA-MB-435; 0.628 µM with MOLT-4 leukemia; 0.239 µM in the assay with NCI-H23 lung; 0.11 µM in the assay with NCI-H522 lung. Moreover, the GI50 with OVCAR-3 ovarian was 0.145 µM; in the assay on SK-MEL-28 melanoma, 0.323 µM; in the assay on SNB-19 CNS it was 0.324 µM; in the assay on UACC-257 melanoma, 0.151 µM. Besides, the TGI in the assay with A498 renal is 1.37 µM; in the assay on CAKI-1 renal it was 7.89 µM; with MDA-MB-435, 0.183 µM; in the assay on MOLT-4 leukemia, 27.8 µM; in the assay on NCI-H23 lung, 12.2 µM; with NCI-H522 lung, 0.371 µM. Further, the TGI in the assay on OVCAR-3 ovarian is 0.509 µM; in the assay with SK-MEL-28 melanoma, 11.7 µM; in the assay on SNB-19 CNS it was 15.2 µM; with UACC-257 melanoma, 15.7 µM.
